Experimental data: US20260265252A1, “SOLID STATE FORMS OF IMIPRIDONE DERIVATIVE” (CHIMERIX, INC., priority 2024, published 2026)
Structures can show the parent of a compound that is named as a salt.

Columns and labels:
[1] = Dynamic vapor sorption (DVS) water uptake; assay type: physicochemical; conditions: for total water uptake / water uptake: DVS; for hygroscopicity: characterised by DVS water uptake
From the text: Dynamic Vapor Sorption (DVS)
Vapor sorption data were collected on a Surface Measurement System DVS Intrinsic instrument. Samples were not dried prior to analysis. Sorption and desorption data were collected over the stated range from at 10% RH increments under a nitrogen purge. The equilibrium criterion used […]

[2] = Relative humidity (RH) experiments / exposure to moisture, solid form change; assay type: physicochemical; conditions: for form change: exposure to moisture / relative humidity (RH) experiments
From the text: The three batches of Compound I (ONC206·2HCl) manufactured to date are described below. The first two processes consistently produced Form 1 (i.e., desolvated anhydrous form, Form 1).

[3] = Solid form stability at ambient conditions; assay type: physicochemical
[4] = test system: diffuse midline glioma, H3 K27M-mutant (DMG H3K27M); conditions: patients with diffuse midline glioma; cited from earlier work

Row | total water uptake [1] [%] | total water uptake ([1]; moles of water) | hygroscopicity [1] | water uptake ([1]; relative humidity of up to 95%) [%] | Structure (SMILES) | other results
1 | 0.3 | < 0.1 mol | non-hygroscopic | 0.3 | O=C1C2=C(CCN(Cc3ccccc3)C2)N2CCN=C2N1Cc1ccc(F)cc1F [Compound I Besylate Form A, 7-benzyl-4-(2,4-difluorobenzyl)-2,4,6,7,8,9-hexahydroimidazo[1,2-a]pyrido[3,4-e]pyrimidin-5(1H)-one] | 
2 | 7.5 | ~ 2.2 moles | hygroscopic |  | O=C1C2=C(CCN(Cc3ccccc3)C2)N2CCN=C2N1Cc1ccc(F)cc1F [Compound I Form 1, 7-benzyl-4-(2,4-difluorobenzyl)-2,4,6,7,8,9-hexahydroimidazo[1,2-a]pyrido[3,4-e]pyrimidin-5(1H)-one] | form change [2]: tends to convert into Form 2; hygroscopicity ([2]; statement in Example 1): hygroscopic; water uptake ([1]; relative humidity of 65% to 85%): 6.7%; water uptake ([1]; relative humidity of 85% to 95%): 0.3%; water uptake ([1]; relative humidity of up to 65%): 0.5%
3 | 2.5 | ~ 0.7 moles | hygroscopic |  | O=C1C2=C(CCN(Cc3ccccc3)C2)N2CCN=C2N1Cc1ccc(F)cc1F [Compound I Form 2, 7-benzyl-4-(2,4-difluorobenzyl)-2,4,6,7,8,9-hexahydroimidazo[1,2-a]pyrido[3,4-e]pyrimidin-5(1H)-one] | form change [2]: no form change was observed; water uptake ([1]; relative humidity of 5% to 25%): 1.8%; water uptake ([1]; relative humidity of 25% to 95%): 0.6%
4 | 0.3 | < 0.1 mol | non-hygroscopic | 0.3 | O=C1C2=C(CCN(Cc3ccccc3)C2)N2CCN=C2N1Cc1ccc(F)cc1F [Compound I Form A, 7-benzyl-4-(2,4-difluorobenzyl)-2,4,6,7,8,9-hexahydroimidazo[1,2-a]pyrido[3,4-e]pyrimidin-5(1H)-one] | 
5 | 0.7 | 0.1 mol | slightly hygroscopic | 0.7 | O=C1C2=C(CCN(Cc3ccccc3)C2)N2CCN=C2N1Cc1ccc(F)cc1F [Compound I Fumarate Form A, 7-benzyl-4-(2,4-difluorobenzyl)-2,4,6,7,8,9-hexahydroimidazo[1,2-a]pyrido[3,4-e]pyrimidin-5(1H)-one] | 
6 |  |  |  |  | O=C1C2=C(CCN(Cc3ccccc3)C2)N2CCN=C2N1Cc1ccc(F)cc1F [Compound I Material 14, 7-benzyl-4-(2,4-difluorobenzyl)-2,4,6,7,8,9-hexahydroimidazo[1,2-a]pyrido[3,4-e]pyrimidin-5(1H)-one] | stability of the solid form [3]: metastable
7 | 2.5 | 1.3 mol | slightly hygroscopic |  | O=C1C2=C(CCN(Cc3ccccc3)C2)N2CCN=C2N1Cc1ccc(F)cc1F [Compound I Sulfate Form A, 7-benzyl-4-(2,4-difluorobenzyl)-2,4,6,7,8,9-hexahydroimidazo[1,2-a]pyrido[3,4-e]pyrimidin-5(1H)-one] | water uptake ([1]; relative humidity of up to 96%): 2.5%
8 | 1.3 | 0.4 mol | slightly hygroscopic |  | O=C1C2=C(CCN(Cc3ccccc3)C2)N2CCN=C2N1Cc1ccc(F)cc1F [Compound I Tosylate Form A, 7-benzyl-4-(2,4-difluorobenzyl)-2,4,6,7,8,9-hexahydroimidazo[1,2-a]pyrido[3,4-e]pyrimidin-5(1H)-one] | water uptake ([1]; relative humidity of up to 96%): 1.3%
9 |  |  |  |  | Cc1ccccc1CN1C(=O)C2=C(CCN(Cc3ccccc3)C2)N2CCN=C12 [ONC201] | tumor regressions [4]: induced durable tumor regressions
